Reference: patent US8633182B2, “Indanyloxyphenylcyclopropanecarboxylic acids” (Boehringer Ingelheim International GmbH, priority 2012, dated 2014)

What follows are compounds tested against human GPR40 receptor (Homo sapiens, UniProt O14842) (assay: IP1 accumulation measurements using the IPOne assay system in 1321N1 cells stably expressing human GPR40 receptor). Settings: IP1 accumulation (HTRF), 1321N1 cells stably expressing human GPR40, 1 hour stimulation at 37° C.
Type: cell-based
Procedure: IP1 accumulation measurements using the IPOne assay system—1321N1 cells stably expressing human GPR40 receptor (Euroscreen, Belgium) are seeded 24 h before the assay in black clear-bottom collagen-coated or white 384-well plates in culture medium containing 10% FCS, 1% Na-Pyruvate and 400 μg/mL G418. IP1 is assayed according to the Manufacturer's description (Cisbio Bioassays, France). In brief, the assay is started by substitution of the culture medium by stimulation buffer (Hepes 10 mM, CaCl2 1 mM, MgCl2 0.5 mM, KCl 4.2 mM, NaCl 146 mM and glucose 5.5 mM, pH 7.4) without LiCl or with […]. Cells are stimulated for 1 hour at 37° C., 5 or 10% CO2 by addition of the compounds that are diluted in stimulation buffer containing LiCl yielding a final LiCl concentration of 50 mM. Assays are stopped by adding HTRF-conjugates (IP1-d2 and Anti-IP1 cryptate Tb) and lysis buffer, provided by the manufacturer. After an incubation time of 1 hour at room temperature plates are measured using an EnVision™, Perkin Elmer. The obtained fluorescence ratios at […] are then used to calculate the pEC50 values using GraphPad Prism 5 (Graphpad Software Inc, USA) or Assay Explorer 3.3 Software (Accelrys, Inc.) by interpolation using an IP1 reference curve and subsequent sigmoidal curve fitting allowing for a variable hill slope.

Sequence of human GPR40 receptor (O14842 whole entry): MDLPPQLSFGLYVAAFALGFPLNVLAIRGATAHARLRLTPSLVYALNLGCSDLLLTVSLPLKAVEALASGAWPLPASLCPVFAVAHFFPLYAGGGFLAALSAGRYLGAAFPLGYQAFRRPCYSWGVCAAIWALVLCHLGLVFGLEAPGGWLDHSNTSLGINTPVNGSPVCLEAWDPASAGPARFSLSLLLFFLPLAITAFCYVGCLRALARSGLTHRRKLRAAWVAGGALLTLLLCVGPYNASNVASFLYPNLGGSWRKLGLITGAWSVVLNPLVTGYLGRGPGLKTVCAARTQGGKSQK

Row | Structure (SMILES) | EC50 [nM]
1 | O=C(O)C1CC1c1ccc(O[C@@H]2CCc3c2cccc3C(F)(F)F)cc1 (stereo in doubt) [Example 2, 2-[4-((R)-4-Trifluoromethyl-indan-1-yloxy)-phenyl]-trans-cyclopropanecarboxylic acid] | 15
2 | O=C(O)C1CC1c1ccc(O[C@@H]2CCc3cc(C(F)(F)F)ccc32)cc1 (stereo in doubt) [Example 3, 2-[4-((R)-5-Trifluoromethyl-indan-1-yloxy)-phenyl]-trans-cyclopropanecarboxylic acid] | 36
3 | O=C(O)C1CC1c1ccc(O[C@@H]2CCc3c(OC(F)(F)F)cccc32)cc1 (stereo in doubt) [Example 4, 2-[4-((R)-4-Trifluoromethoxy-indan-1-yloxy)-phenyl]-trans-cyclopropanecarboxylic acid] | 18
4 | O=C(O)C1CC1c1ccc(O[C@@H]2CCc3c2cccc3C(F)(F)F)cc1F (stereo in doubt) [Example 5, 2-[4-((R)-4-Trifluoromethyl-indan-1-yloxy)-2-fluorophenyl]-trans-cyclopropanecarboxylic acid] | 85
5 | O=C(O)C1CC1c1ccc(O[C@@H]2CCc3c(OC(F)(F)F)cccc32)cc1F (stereo in doubt) [Example 6, 2-[4-((R)-4-Trifluoromethoxy-indan-1-yloxy)-2-fluorophenyl]-trans-cyclopropanecarboxylic acid] | 98
6 | COc1cc(O[C@@H]2CCc3c2cccc3C(F)(F)F)ccc1C1CC1C(=O)O (stereo in doubt) [Example 7, 2-[4-((R)-4-Trifluoromethyl-indan-1-yloxy)-2-methoxyphenyl]-trans-cyclopropanecarboxylic acid] | 531
7 | Cc1cccc(C)c1-c1ccc(F)c2c1CC[C@H]2Oc1ccc(C2CC2C(=O)O)cc1 (stereo in doubt) [Example 33, 2-{4-[(R)-4-(2,6-Dimethyl-phenyl)-7-fluoro-indan-1-yloxy]-phenyl}-trans-cyclopropanecarboxylic acid] | 2
8 | COc1cc(O[C@@H]2CCc3c(OC(F)(F)F)cccc32)ccc1[C@@H]1C[C@H]1C(=O)O [Example 8] | 407
9 | O=C(O)[C@@H]1C[C@H]1c1ccc(O[C@@H]2CCc3c2cccc3C(F)(F)F)cc1 [Example 9] | 457
10 | O=C(O)[C@H]1C[C@@H]1c1ccc(O[C@@H]2CCc3c2cccc3C(F)(F)F)cc1 [Example 10] | 13
11 | Cc1cc(OCCCS(C)(=O)=O)cc(C)c1-c1ccc(F)c2c1CC[C@H]2Oc1ccc([C@H]2C[C@@H]2C(=O)O)cc1 [Example 11] | 9
12 | Cc1cc(OCCCS(C)(=O)=O)cc(C)c1-c1ccc(F)c2c1CC[C@H]2Oc1ccc([C@@H]2C[C@H]2C(=O)O)cc1 [Example 12, (1R,2R)-2-(4-{(R)-7-Fluoro-4-[4-(3-methanesulfonyl-propoxy)-2,6-dimethyl-phenyl]-indan-1-yloxy}-phenyl)-cyclopropanecarboxylic acid] | 328
13 | Cc1cc(OCCCS(C)(=O)=O)cc(C)c1-c1ccc(F)c2c1CC[C@H]2Oc1ccc(C2CC2C(=O)O)cc1 (some centres unmarked) [Example 13] | 13
14 | Cc1cc(OCC(C)(C)S(C)(=O)=O)cc(C)c1-c1ccc(F)c2c1CC[C@H]2Oc1ccc([C@H]2C[C@@H]2C(=O)O)cc1 [Example 14, (1S,2S)-2-(4-{(R)-7-Fluoro-4-[4-(2-methanesulfonyl-2-methyl-propoxy)-2,6-dimethyl-phenyl]-indan-1-yloxy}-phenyl)-cyclopropanecarboxylic acid] | 8
15 | Cc1cc(C(=O)NCC(C)(C)O)cc(C)c1-c1ccc(F)c2c1CC[C@H]2Oc1ccc([C@H]2C[C@@H]2C(=O)O)cc1 [Example 15, (1S,2S)-2-(4-{(R)-7-Fluoro-4-[4-(2-hydroxy-2-methyl-propylcarbamoyl)-2,6-dimethyl-phenyl]-indan-1-yloxy}-phenyl)-cyclopropanecarboxylic acid] | 12
16 | O=C(O)[C@H]1C[C@@H]1c1ccc(O[C@@H]2CCc3cccc(F)c32)cc1 [Example 16, (1S,2S)-2-[4-((R)-7-Fluoro-indan-1-yloxy)-phenyl]-cyclopropanecarboxylic acid] | 304
17 | Cc1cc(OCCC(C)(C)O)cc(C)c1-c1ccc(F)c2c1CC[C@H]2Oc1ccc([C@H]2C[C@@H]2C(=O)O)cc1 [Example 17, (1S,2S)-2-(4-{(R)-7-Fluoro-4-[4-(3-hydroxy-3-methyl-butoxy)-2,6-dimethyl-phenyl]-indan-1-yloxy}-phenyl)-cyclopropanecarboxylic acid] | 4
18 | Cc1cc(OCC2(S(C)(=O)=O)CC2)cc(C)c1-c1ccc(F)c2c1CC[C@H]2Oc1ccc([C@H]2C[C@@H]2C(=O)O)cc1 [Example 18, (1S,2S)-2-(4-{(R)-7-Fluoro-4-[4-(1-methanesulfonyl-cyclopropylmethoxy)-2,6-dimethyl-phenyl]-indan-1-yloxy}-phenyl)-cyclopropane-carboxylic acid] | 5

Row | Structure (SMILES) | EC50 [nM]
19 | CNC(=O)c1cc(C)c(-c2ccc(F)c3c2CC[C@H]3Oc2ccc([C@H]3C[C@@H]3C(=O)O)cc2)c(C)c1 [Example 19, (1S,2S)-2-{4-[(R)-4-(2,6-Dimethyl-4-methylcarbamoyl-phenyl)-7-fluoro-indan-1-yloxy]-phenyl}-cyclopropane-carboxylic acid] | 13
20 | Cc1cc(OCC2CN(S(C)(=O)=O)C2)cc(C)c1-c1ccc(F)c2c1CC[C@H]2Oc1ccc([C@H]2C[C@@H]2C(=O)O)cc1 [Example 20, (1S,2S)-2-(4-{(R)-7-Fluoro-4-[4-(1-methanesulfonyl-azetidin-3-ylmethoxy)-2,6-dimethyl-phenyl]-indan-1-yloxy}-phenyl)-cyclopropanecarboxylic acid] | 10
21 | Cc1cc(OCC2CCS(=O)(=O)CC2)cc(C)c1-c1ccc(F)c2c1CC[C@H]2Oc1ccc([C@H]2C[C@@H]2C(=O)O)cc1 [Example 21] | 7
22 | Cc1cc(OCCN2CCCS2(=O)=O)cc(C)c1-c1ccc(F)c2c1CC[C@H]2Oc1ccc([C@H]2C[C@@H]2C(=O)O)cc1 [Example 22] | 12
23 | Cc1cc(O[C@@H]2CCN(S(C)(=O)=O)C2)cc(C)c1-c1ccc(F)c2c1CC[C@H]2Oc1ccc([C@H]2C[C@@H]2C(=O)O)cc1 [Example 23] | 13
24 | Cc1cc(O[C@H]2CCN(S(C)(=O)=O)C2)cc(C)c1-c1ccc(F)c2c1CC[C@H]2Oc1ccc([C@H]2C[C@@H]2C(=O)O)cc1 [Example 24] | 18
25 | Cc1cc(O[C@@H]2CCOC2)cc(C)c1-c1ccc(F)c2c1CC[C@H]2Oc1ccc([C@H]2C[C@@H]2C(=O)O)cc1 [Example 25] | 13
26 | Cc1cc(OC(C)(C)CO)cc(C)c1-c1ccc(F)c2c1CC[C@H]2Oc1ccc([C@H]2C[C@@H]2C(=O)O)cc1 [Example 26] | 8
27 | Cc1cc(OCC(C)(C)O)cc(C)c1-c1ccc(F)c2c1CC[C@H]2Oc1ccc([C@H]2C[C@@H]2C(=O)O)cc1 [Example 27, (1S,2S)-2-(4-{(R)-7-Fluoro-4-[4-(2-hydroxy-2-methyl-propoxy)-2,6-dimethyl-phenyl]-indan-1-yloxy}-phenyl)-cyclopropanecarboxylic acid] | 8
28 | Cc1cc(OC[C@H](C)CS(C)(=O)=O)cc(C)c1-c1ccc(F)c2c1CC[C@H]2Oc1ccc([C@H]2C[C@@H]2C(=O)O)cc1 [Example 28, (1S,2S)-2-(4-{(R)-7-Fluoro-4-[4-((S)-3-methanesulfonyl-2-methyl-propoxy)-2,6-dimethyl-phenyl]-indan-1-yloxy}-phenyl)-cyclopropanecarboxylic acid] | 6
29 | Cc1cc(OC[C@@H](C)CS(C)(=O)=O)cc(C)c1-c1ccc(F)c2c1CC[C@H]2Oc1ccc([C@H]2C[C@@H]2C(=O)O)cc1 [Example 29, (1S,2S)-2-(4-{(R)-7-Fluoro-4-[4-((R)-3-methanesulfonyl-2-methyl-propoxy)-2,6-dimethyl-phenyl]-indan-1-yloxy}-phenyl)-cyclopropanecarboxylic acid] | 7
30 | Cc1cc(OC(C)(C)C(N)=O)cc(C)c1-c1ccc(F)c2c1CC[C@H]2Oc1ccc([C@H]2C[C@@H]2C(=O)O)cc1 [Example 30, (1S,2S)-2-(4-{(R)-4-[4-(1-Carbamoyl-1-methyl-ethoxy)-2,6-dimethyl-phenyl]-7-fluoro-indan-1-yloxy}-phenyl)-cyclopropanecarboxylic acid] | 18
31 | Cc1cc(OCCCCS(C)(=O)=O)cc(C)c1-c1ccc(F)c2c1CC[C@H]2Oc1ccc([C@H]2C[C@@H]2C(=O)O)cc1 [Example 31, (1S,2S)-2-(4-{(R)-7-Fluoro-4-[4-(4-methanesulfonyl-butoxy)-2,6-dimethyl-phenyl]-indan-1-yloxy}-phenyl)-cyclopropanecarboxylic acid] | 6
32 | Cc1cc(OCC2(CO)CC2)cc(C)c1-c1ccc(F)c2c1CC[C@H]2Oc1ccc([C@H]2C[C@@H]2C(=O)O)cc1 [Example 32] | 4
33 | Cc1cc(OCCC(C)(C)O)cc(C)c1-c1c(C#N)ccc2c1CC[C@H]2Oc1ccc([C@H]2C[C@@H]2C(=O)O)cc1 [Example 34] | 8
34 | Cc1cc(OCC2CCS(=O)(=O)CC2)cc(C)c1-c1c(C#N)ccc2c1CC[C@H]2Oc1ccc([C@H]2C[C@@H]2C(=O)O)cc1 [Example 35] | 28
35 | Cc1cc(O[C@@H]2CCN(S(C)(=O)=O)C2)cc(C)c1-c1c(C#N)ccc2c1CC[C@H]2Oc1ccc([C@H]2C[C@@H]2C(=O)O)cc1 [Example 37] | 32
